# Like-named read-outs stand apart in the source and are kept apart here.
# Legend:
# Peronospora parasitica = assay: Example A: in vivo test on Peronospora parasitica (downy mildew on white cabbage); details: Hyaloperonospora parasitica, 120 h, cabbage plants sprayed 24 hours before inoculation, scored after 5 days, read-out: % Wirkungsgrad
# In short: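 Cabbage plants (Eminence) at cotyledon stage sprayed with aqueous compound suspension (acetone/Tween/DMSO, diluted with water), then inoculated 24 h later with P. parasitica spores at 50,000 spores/ml. After 5 days in moist atmosphere at ca. 20 °C, disease scored against untreated sprayed controls.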
# Botrytis cinerea [1] = assay: Example B: in vivo test on Botrytis cinerea (grey mould on cucumbers); details: cucumber plants sprayed 24 hours before inoculation, scored after 5-7 days, read-out: % Wirkungsgrad
# Protocol: In Vivo Test on Botrytis Cinerea (Grey Mould on Cucumbers) An aqueous suspension of the active substance was prepared by homogenization of a mixture of acetone/Tween/dimethyl sulphoxide and subsequent dilution with water to the desired concentration. Cucumber plants (variety: Vert petit de Paris) are sown in cultivation dishes on a peat-pozzolanic earth substrate (50/50) at 18-20° C. and sprayed at the cotyledon stage Z11 with the aqueous suspension described above. As a control, plants are sprayed with an aqueous solution with no active substance. […] The spores are derived from a 15 day-old culture which are suspended in the following nutrient solution: • 20 g/l gelatine • 50 g/l D-fructose • 2 g/l NH4NO3 • 1 g/l KH2PO4 The inoculated cucumber plants are kept for 5-7 days in a climatic chamber at […] After 5-7 days they are scored in comparison with the control plants.
# Sphaerotheca fuliginea [2] = assay: Example D: in vivo test on Sphaerotheca fuliginea (powdery mildew on cucumber); details: Podosphaera fuliginea, 288 h, cucumber plants sprayed 24 hours before inoculation, scored after 12 days, read-out: % Wirkungsgrad
# In short: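 Cucumber plants at cotyledon stage Z10 were sprayed with the compound suspended in acetone/Tween/DMSO diluted with water. After 24 hours they were inoculated with Sphaerotheca fuliginea spores (100,000/ml) and incubated at ca. 20/25° C. and 60/70% RH. Disease was scored after 12 days against untreated sprayed controls.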
# Puccinia recondita = assay: Example F: in vivo test on Puccinia recondita (wheat brown rust); details: 240 h, wheat plants sprayed 24 hours before inoculation, scored after 10 days, read-out: % Wirkungsgrad
# Protocol: In Vivo Test on Puccinia Recondita (Wheat Brown Rust) An aqueous suspension of the active substance was prepared by homogenization of a mixture of acetone/Tween/dimethyl sulphoxide and subsequent dilution with water to the desired concentration. Wheat plants (variety: Scipion) are sown in cultivation dishes on a peat-pozzolanic earth substrate (50/50) at 12° C. and sprayed at the first-leaf stage (10 cm size) with the aqueous suspension described above. As a control, plants are sprayed with an aqueous solution with no active substance. After 24 hours the plants are inoculated by spraying with an aqueous suspension of Puccinia recondita spores (100,000 spores per ml). The spores are derived from a 10 day-old infected wheat crop and are suspended in water with 2.5 ml/l Tween. […] After 10 days they are scored in comparison with the control plants.
# [3] = test system: Mycosphaerella graminicola; assay: Example G: in vivo test on Mycosphaerella graminicola (wheat leaf blotch disease); details: Zymoseptoria tritici, wheat plants sprayed 24 hours before inoculation, scored after 21 to 28 days, read-out: % Wirkungsgrad
# In short: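 Scipion wheat at first-leaf stage (10 cm) was sprayed with aqueous active-substance suspension, then inoculated 24 hours later with Mycosphaerella graminicola spores (500,000 spores per ml) from 7 day-old culture. Disease was scored after 21 to 28 days against untreated sprayed controls.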
# Sphaerotheca fuliginea [4] = assay: Example L: in vivo test on Sphaerotheca fuliginea (powdery mildew on cucumber/protective); details: Podosphaera fuliginea, 168 h, cucumber, protective, assessment 7 days after inoculation, read-out: % Wirkungsgrad
# In short: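 Young cucumber plants sprayed at stated dosage with compound in DMF/alkylaryl polyglycol ether emulsifier diluted in water; inoculated with S. fuliginea spores one day later. Kept in greenhouse at 70% relative humidity, 23° C; protective activity assessed 7 days after inoculation.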
# Alternaria solani = assay: Example M: in vivo test on Alternaria solani (leaf blotch disease/tomato/protective); details: 168 h, tomato, protective, 500 ppm active substance, assessed 7 days after inoculation, read-out: % Wirkungsgrad (activity level)
# In short: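 Protective test: young tomato plants sprayed with active substance (in DMF with alkylaryl polyglycol ether emulsifier, diluted in water) at the stated dosage, then inoculated with Alternaria solani. Disease assessed 7 days after inoculation.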
# Botrytis cinerea [5] = assay: Example P: in vivo test on Botrytis cinerea (gray mould on bean/protective); details: 48 h, bean, protective, 250 ppm active substance, assessed 2 days after inoculation, read-out: % Wirkungsgrad (activity level)
# In short: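 Protective test: young bean plants sprayed with the active substance preparation (emulsifier-based concentrate diluted in water) at the stated dosage. Once dry, each leaf received 2 agar pieces bearing Botrytis cinerea. Infection blotch size assessed 2 days after inoculation.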
# Alternaria brassicae = assay: Example C: in vivo test on Alternaria brassicae (leaf spot disease on radishes); details: 500 ppm; radish plants sprayed 24 hours before inoculation; scored after 6-7 days
# Protocol: In Vivo Test on Alternaria Brassicae (Leaf Spot Disease on Radishes) An aqueous suspension of the active substance was prepared by homogenization of a mixture of acetone/Tween/dimethyl sulphoxide and subsequent dilution with water to the desired concentration. Radish plants (variety: Pernot) are sown in cultivation dishes on a peat-pozzolanic earth substrate (50/50) at 18-20° C. and sprayed at the cotyledon stage with the aqueous suspension described above. As a control, plants are sprayed with an aqueous solution with no active substance. After 24 hours, the plants are inoculated by spraying with an aqueous suspension of Alternaria brassicae spores (40,000 spores per ml). The spores are derived from a 12 to 13 day-old culture. The inoculated radish plants are incubated for 6-7 days at ca. 18° C. in a humid atmosphere. After 6-7 days they are scored in comparison with the control plants.
# Plasmopara viticola = assay: Example N: in vivo test on Plasmopara viticola (downy mildew, vine/protective); details: 144 h, vine, protective, assessment 6 days after inoculation, read-out: % Wirkungsgrad
# In short: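 Protective test: young vine plants were sprayed with active substance diluted in water from a solvent/alkylaryl polyglycol ether emulsifier concentrate at the stated dosage, then inoculated with P. viticola. Plants were moistened and kept 1 day in an incubation cabin, and assessed 6 days after inoculation.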
# Venturia inaequalis = assay: Example O: in vivo test on Venturia inaequalis (apple scab/protective); details: 240 h, protective, assessment 10 days after inoculation, read-out: % Wirkungsgrad
# In short: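 Protective test: active substance mixed with solvent and alkylaryl polyglycol ether emulsifier, diluted with water, and sprayed on young plants at the stated dosage before Venturia inaequalis inoculation. Scab assessed 10 days after inoculation.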
# Fusarium proliferatum = assay: Example I: production of fumonisin FB1 by Fusarium proliferatum (microtitre plates); assay type: cell-based; details: 120 h
# Fusarium graminearum = assay: microbe, parasite or virus in culture; assay type: cell-based
# Pyricularia oryzae = assay: whole plant or invertebrate; assay type: in vivo; details: 120 h, read-out: % Activity level
# Rhizoctonia solani = assay: Example W: in vivo test on Rhizoctonia solani (sheath blight in rice/protective); details: 96 h, rice, protective, 250 ppm active substance, assessed 4 days after inoculation, read-out: % Activity level
# Protocol: Solvent: 28.5 parts by weight acetone Emulsifier: 1.5 parts by weight alkylaryl polyglycol ethers For the preparation of a suitable active substance preparation, 1 part by weight of active substance is mixed with the stated quantities of solvent and emulsifier and the concentrate is diluted to the desired concentration with water. For the testing for protective activity, young rice plants are sprayed with the active substance preparation at the stated application dosage. One day after the treatment, the plants are inoculated with hyphae of Rhizoctonia solani. […] 4 days after the inoculation, the assessment takes place.
# Cochliobolus miyabeanus = assay: Example X: in vivo test on Cochliobolus miyabeanus (brown spot disease, rice/protective); details: Bipolaris oryzae, 96 h, read-out: % Activity level
# Aspergillus parasiticus = assay: microbe, parasite or virus in culture; assay type: cell-based; details: 168 h
# [6] = LogPA (logP of the stated pure compound or, in a mixture, of the main isomer, 1-substituted 3-aryl-1H-pyrazole)
# [7] = Fusarium proliferatum growth, OD 620, 5 days, read-out: % Inhibition des Pilzwachstums bei 50 μM
# [8] = Fusarium proliferatum, 5 days at 20° C., HPLC-MS/MS, read-out: % Inhibition der FB1 produktion bei 50 μM
# [9] = 72 h, read-out: % Inhibition des Pilzwachstums bei 50 μM
# [10] = 168 h, read-out: % Inhibition der DON/AcDON produktion bei 50 μM
compound,measurement,setting,value
C#CCn1nc(-c2ccc(F)cc2)c(-c2ccncc2)c1C [Compound 171],pest or weed control at 500 ppm,Peronospora parasitica,91%
same,pest or weed control at 500 ppm,Botrytis cinerea [1],71%
same,pest or weed control at 500 ppm,Sphaerotheca fuliginea [2],100%
same,pest or weed control at 500 ppm,Puccinia recondita,94%
same,pest or weed control at 500 ppm,[3],93%
same,pest or weed control at 500 ppm,Sphaerotheca fuliginea [4],100%
same,pest or weed control at 500 ppm,Alternaria solani,95%
same,pest or weed control at 250 ppm,Botrytis cinerea [5],84%
same,chromatographic logP,physchem; LogPA,2.51
CC(C)n1ncc(-c2ccncc2)c1-c1c(F)cccc1F [Compound 10],pest or weed control at 500 ppm,Peronospora parasitica,85%
same,pest or weed control at 500 ppm,Botrytis cinerea [1],73%
same,% Activity level,Alternaria brassicae,85%
same,pest or weed control at 500 ppm,Sphaerotheca fuliginea [2],80%
same,pest or weed control at 500 ppm,[3],95%
same,chromatographic logP,physchem; [6],1.54
CC(=O)Nc1ccc(-c2c(-c3ccncc3)cnn2C2CCCCO2)cc1 (stereo not drawn) [[X-13]],LogP (pH 2.3),,0.97
NC(=O)c1cc(-c2cn(C3CCCCO3)nc2-c2ccc(F)cc2)ccn1 (stereo not drawn) [Compound 93],pest or weed control at 500 ppm,Puccinia recondita,83%
same,chromatographic logP,physchem; [6],2.46
Fc1ccc(-c2nn(CC3CC3)cc2-c2ccncc2)cc1 [Compound 126],pest or weed control at 500 ppm,Peronospora parasitica,89%
same,pest or weed control at 500 ppm,Sphaerotheca fuliginea [2],85%
same,pest or weed control at 500 ppm,Puccinia recondita,75%
same,pest or weed control at 500 ppm,Sphaerotheca fuliginea [4],95%
same,pest or weed control at 500 ppm,Alternaria solani,95%
same,pest or weed control at 100 ppm,Plasmopara viticola,81%
same,pest or weed control at 100 ppm,Venturia inaequalis,98%
same,pest or weed control at 250 ppm,Botrytis cinerea [5],100%
same,chromatographic logP,physchem; [6],1.33
CCC(C)n1cc(-c2ccncc2)c(-c2c(F)cccc2F)n1 (stereo not drawn) [Compound 3],pest or weed control at 500 ppm,Peronospora parasitica,97%
same,% Activity level,Alternaria brassicae,88%
same,pest or weed control at 500 ppm,Sphaerotheca fuliginea [2],93%
same,pest or weed control at 500 ppm,[3],95%
same,chromatographic logP,physchem; [6],1.82
O=C(Nc1cc(-c2cn(CCCl)nc2-c2ccc(F)cc2)ccn1)C1CC1 [Compound 221],inhibition at 50 µM,Fusarium proliferatum; [7],99%
same,inhibition at 50 µM,Fusarium proliferatum; [8],100%
same,inhibition at 50 µM,Fusarium graminearum; [9],100%
same,inhibition at 50 µM,Fusarium graminearum; [10],100%
same,pest or weed control at 500 ppm,Sphaerotheca fuliginea [4],100%
same,pest or weed control at 100 ppm,Venturia inaequalis,91%
same,pest or weed control at 250 ppm,Botrytis cinerea [5],100%
same,pest or weed control at 250 ppm,Pyricularia oryzae,92%
same,pest or weed control at 250 ppm,Rhizoctonia solani,100%
same,pest or weed control at 250 ppm,Cochliobolus miyabeanus,80%
same,chromatographic logP,physchem; LogPA,2.1
4-[3-(4-fluorophenyl)-1-isobutyl-1H-pyrazol-4-yl]-N-isopropylpyrimidin-2-amine [[I-h-1]],logP (pH 2.7),pH 2.7,1.81
CC(C)n1cc(-c2ccnc3ccccc23)c(-c2ccc(F)cc2)n1 [Compound 44],pest or weed control at 500 ppm,Peronospora parasitica,78%
same,pest or weed control at 500 ppm,Botrytis cinerea [1],71%
same,pest or weed control at 500 ppm,Sphaerotheca fuliginea [2],98%
same,pest or weed control at 500 ppm,Puccinia recondita,71%
same,pest or weed control at 500 ppm,[3],81%
same,inhibition at 50 µM,Fusarium proliferatum; [7],33%
same,inhibition at 50 µM,Fusarium proliferatum; [8],100%
same,chromatographic logP,physchem; [6],2.24
CC(C)Cn1ncc(-c2ccncc2)c1-c1c(F)cccc1F [Compound 2],pest or weed control at 500 ppm,Peronospora parasitica,85%
same,pest or weed control at 500 ppm,Botrytis cinerea [1],74%
same,% Activity level,Alternaria brassicae,77%
same,pest or weed control at 500 ppm,Sphaerotheca fuliginea [2],93%
same,pest or weed control at 500 ppm,[3],98%
same,pest or weed control at 500 ppm,Alternaria solani,100%
same,chromatographic logP,physchem; [6],1.86
COCC(=O)Nc1cc(-c2cn(C(C)C)nc2-c2ccc(F)cc2)ccn1 [Compound 40],pest or weed control at 500 ppm,Peronospora parasitica,98%
same,pest or weed control at 500 ppm,Botrytis cinerea [1],100%
same,pest or weed control at 500 ppm,Sphaerotheca fuliginea [2],100%
same,pest or weed control at 500 ppm,Puccinia recondita,86%
same,pest or weed control at 500 ppm,[3],81%
same,inhibition at 50 µM,Fusarium proliferatum; [7],98%
same,inhibition at 50 µM,Fusarium proliferatum; [8],100%
same,inhibition at 50 µM,Fusarium graminearum; [9],100%
same,inhibition at 50 µM,Fusarium graminearum; [10],100%
same,inhibition at 50 µM,"Aspergillus parasiticus; 50 μM, 7 days at 20° C., read-out: Inhibition der Aflatoxin produktion bei 50 μM",99%
same,inhibition at 50 µM,Aspergillus parasiticus; read-out: % Inhibition des Pilzwachstums bei 50 μM,88%
same,pest or weed control at 100 ppm,Plasmopara viticola,72%
same,pest or weed control at 100 ppm,Venturia inaequalis,97%
same,pest or weed control at 250 ppm,Botrytis cinerea [5],100%
same,pest or weed control at 250 ppm,Pyricularia oryzae,95%
same,pest or weed control at 250 ppm,Cochliobolus miyabeanus,85%
same,chromatographic logP,physchem; [6],2.59
Mixture of 4-bromo-3-(4-fluorophenyl)-1-isopropyl-1H-pyrazole and 4-bromo-5-(4-fluoro-phenyl)-1-isopropyl-1H-pyrazole [[VI-1]],logP (pH 2.7),pH 2.7,3.96
same,"logP (pH 2.7), minor isomer",pH 2.7,3.68
"Cc1cc(F)ccc1-c1c(-c2ccncc2)cnn1C1CCCCO1 (stereo not drawn) [[X-5], 4-[5-(4-fluoro-2-methylphenyl)-1-(tetrahydro-2H-pyran-2-yl)-1H-pyrazol-4-yl]pyrid]",LogP (pH 2.3),,1.40
N-Benzyl-4-[3-(4-fluorophenyl)-1-isopropyl-1H-pyrazol-4-yl]pyrimidin-2-amine [[I-f-1]],logP (pH 2.7),pH 2.7,3.31
"Cc1cc(-c2c(-c3ccncc3)cnn2C2CCCCO2)ccc1F (stereo not drawn) [[X-7], 4-[5-(4-fluoro-3-methylphenyl)-1-(tetrahydro-2H-pyran-2-yl)-1H-pyrazol-4-yl]pyrid]",LogP (pH 2.3),,1.47

# Source: patent US20110183978A1, “Phenylpyri(mi)dinylazoles” (Bayer CropScience AG, priority 2009, published 2011)
